Assay results published in patent US7098204B2 (C.N.R.S., priority 1999, dated 2006).
Converted amounts (≈) assume the structure as drawn.

What was measured:
cdk6/cyclin D2 = cdk6/cyclin D2 (Homo sapiens, UniProt Q00534); test: cdk6/cyclin D2 kinase assay; type: biochemical; details: 15 μM ATP
Protocol: (§1) Kinases activities were assayed in Buffer A or C (unless otherwise stated), at 30° C., at a final ATP concentration of 15 μM. Blank values were subtracted and activities calculated as pmoles of phosphate incorporated for a 10 min. incubation (usually expressed in % of the maximal activity, i.e. without inhibitors). Controls were performed with appropriate dilutions of Me2SO. In some cases phosphorylation of the substrate was assessed by autoradiography after SDS-PAGE. IC50 values were estimated from the dose-response curves. • CDK1/cyclin B was extracted in homogenisation buffer from M phase starfish (Marthasterias glacialis) oocytes and purified by affinity chromatography on p9^CKShs1-Sepharose beads, from which it was eluted by free p9^CKShs1 as described. The kinase activity was assayed in buffer C, with 1 mg histone H1/ml, in the presence of 15 μM [γ-^32P] ATP (3,000 Ci/mmol; 1 mCi/ml) in a final volume of 30 μl. After 10 min. incubation at 30° C., 25 μl aliquots of supernatant were spotted onto 2.5×3 cm pieces of Whatman P81 phosphocellulose paper, and, 20 sec. later, the filters were washed five times (for at least 5 min. each time) in a solution of 10 ml phosphoric acid/liter of water. The wet filters were counted in the presence of 1 ml ACS (Amersham) scintillation fluid. • GSK-3β was either purified from rabbit muscle or expressed in and purified from insect Sf9 cells. […]

c-Jun N-terminal kinase = c-Jun N-terminal kinase assay; type: biochemical; details: 15 μM ATP
Protocol: as §1

protein kinase C α = protein kinase C α (Homo sapiens, UniProt P17252); test: protein kinase C α assay; type: biochemical; details: 15 μM ATP
Protocol: as §1

protein kinase C ζ = protein kinase C ζ (Homo sapiens, UniProt Q05513); test: protein kinase C ζ assay; type: biochemical; details: 15 μM ATP
Protocol: as §1

topoisomerase I = topoisomerase I (Homo sapiens, UniProt P11387); test: topoisomerase I assay; type: biochemical; details: −(x) = no effect at the highest dose tested (in parentheses)
Protocol: Enzyme activities were assayed as described in the Experimental Procedures section, in the presence of increasing HD concentrations. IC50's were calculated from the dose-response curves.−, no effect at the highest dose tested (in parentheses).

casein kinase 1 = test: In vitro phosphorylation of presenilin-2-MBP by casein kinase 1; type: biochemical; details: presenilin-2-MBP substrate, autoradiography
Protocol: The large hydrophilic loop of presenilin-2 between transmembrane domains 6 and 7 was expressed in E. coli as a presseilin-2 loop—maltose-binding protein (MBP) fusion protein [25]. Following affinity chromatography purification presenilin-2-MBP was used as a substrate for CK1. After 30 min incubation in the presence of various HD concentrations, the kinase reaction was stopped by addition of Laemmli sample buffer. MBP-presenilin-2 was resolved by SDS-PAGE and its phosphorylation level visualised by autoradiography.

CDK5/p35 = CDK5/p35 (Rattus norvegicus, UniProt Q03114); test: In vitro Pak1 phosphorylation by immunoprecipitated CDK5/p35; type: biochemical; details: CDK5/p35 immunoprecipitated from P02 rat cortices; read-out: IC50 CDK5/p35 towards GST-Pak1K299
Protocol: CDK5/p35 was immunoprecipitaed from P02 rat cortices using the C-terminal Santa Cruz antibody (400 μg total protein per kinase assay). The immunoprecipitate was split into equal aliquots and the kinase assays performed using GST-Pak1 K299 as a substrate. […] Phosphorylation was monitored by autoradiography.

GSK-3β = GSK-3β (Mus musculus, UniProt Q9WV60); test: MAP-1B phosphorylation by GSK-3 in cerebellar granule cells; type: cell-based, mice
Protocol: Cerebellar granule cells were isolated from newborn mice and purified according to the method of Hatten using Percoll gradients. Cells were plated onto dishes coated with poly-D-lysine (100 μg/ml) and laminin (50 μg/ml) and grown in serum-free medium for 1 day, the cultures were then treated with HD (1–100 μM) for 20 h. Cultures were fixed with 4% formaldehyde in PBS and stored in PBS at 4° C. Cells were permeabilised with 100% methanol and incubated with primary antibodies against GAP-43 and MAP-1B-P (SMI-31, Affiniti) overnight at 4° C. FITC and Texas Red conjugated secondary antibodies were used (Vector). For western blot analysis, cells were lysed in sample buffer and analysed by 8% SDS-PAGE. Proteins were transferred to nitrocellulose membranes and incubated with an antibody to MAP-1B-P (SMI-31) diluted in block solution (0.1% Tween-20, 3% dried skimmed milk in TBS) for 2 h at room temperature. HRP-conjugated secondary antibodies (Amersham) were used and proteins were visualised using the ECL system (Pierce). Blots were scanned using a flat bed scanner (UMAX Astra 1200S).

lung, H460 = test: Human cancer cell line H460 proliferation; type: cell-based; details: NCI-H460
CDK1/cyclin B = test: Cyclin B release from immobilised CDK1/cyclin B, Western blot; type: binding, starfish; details: high HD concentrations, 30 min., beads washed
Protocol: Proteins bound to p9^CKShs1-Sepharose beads (starfish CDK1/cyclin B) were denatured with 2× Laemmli sample buffer. Samples were run on 10% SDS-polyacrylamide gels. Proteins were transferred from the gel to a 0.1 μm nitrocellulose sheet in a milliblot-SDE system (Millipore) for 30 min. at 2.5 mA/cm^2 in transfer buffer. Subsequently, the filter was blocked with 5% low fat milk in TBST for 1 hour. The filter was then washed with TBST and incubated for 1 hour with the first antibodies (anti-PSTAIRE, 1:2000; anti-cyclin B, 1:1000). After 4 washes (1×20 min., 3×5 min.) with TBST, the nitrocellulose sheet was treated for 1 hour with horseradish peroxidase-coupled secondary antibodies diluted in TBST (1:1000). The filter was then washed 5 times (1×20 min., 4×5 min.) with TBST and analysed by enhanced chemioluminescence with ECL detection reagents and hyperfilm MP.
To investigate the mechanism of HD action, kinetic experiments were performed by varying both ATP levels and HD concentrations (FIG. 6A). […] Enzyme activities were assayed as described under the Experimental Procedures section. Results illustrated by FIG. 6A: 1/v vs 1/ATP primary plot. ATP concentrations in the reaction mixture varied from 0.05 to 0.25 mM, concentration of histone H1 was kept constant at 0.7 mg/ml. […] Apparent inhibition constant (Ki) is indicated by an arrow.

Sequence of GSK-3β (Q9WV60 whole entry): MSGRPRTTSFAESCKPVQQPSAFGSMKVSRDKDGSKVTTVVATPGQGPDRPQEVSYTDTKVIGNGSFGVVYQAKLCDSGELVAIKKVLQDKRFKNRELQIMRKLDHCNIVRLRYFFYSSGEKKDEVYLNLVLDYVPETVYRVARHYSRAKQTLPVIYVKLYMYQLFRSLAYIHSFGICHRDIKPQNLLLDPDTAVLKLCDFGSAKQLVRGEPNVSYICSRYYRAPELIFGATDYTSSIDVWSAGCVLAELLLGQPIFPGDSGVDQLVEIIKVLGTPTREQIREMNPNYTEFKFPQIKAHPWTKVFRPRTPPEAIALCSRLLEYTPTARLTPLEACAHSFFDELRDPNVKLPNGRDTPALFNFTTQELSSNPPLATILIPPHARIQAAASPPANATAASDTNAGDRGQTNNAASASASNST
Sequence of topoisomerase I (P11387 whole entry): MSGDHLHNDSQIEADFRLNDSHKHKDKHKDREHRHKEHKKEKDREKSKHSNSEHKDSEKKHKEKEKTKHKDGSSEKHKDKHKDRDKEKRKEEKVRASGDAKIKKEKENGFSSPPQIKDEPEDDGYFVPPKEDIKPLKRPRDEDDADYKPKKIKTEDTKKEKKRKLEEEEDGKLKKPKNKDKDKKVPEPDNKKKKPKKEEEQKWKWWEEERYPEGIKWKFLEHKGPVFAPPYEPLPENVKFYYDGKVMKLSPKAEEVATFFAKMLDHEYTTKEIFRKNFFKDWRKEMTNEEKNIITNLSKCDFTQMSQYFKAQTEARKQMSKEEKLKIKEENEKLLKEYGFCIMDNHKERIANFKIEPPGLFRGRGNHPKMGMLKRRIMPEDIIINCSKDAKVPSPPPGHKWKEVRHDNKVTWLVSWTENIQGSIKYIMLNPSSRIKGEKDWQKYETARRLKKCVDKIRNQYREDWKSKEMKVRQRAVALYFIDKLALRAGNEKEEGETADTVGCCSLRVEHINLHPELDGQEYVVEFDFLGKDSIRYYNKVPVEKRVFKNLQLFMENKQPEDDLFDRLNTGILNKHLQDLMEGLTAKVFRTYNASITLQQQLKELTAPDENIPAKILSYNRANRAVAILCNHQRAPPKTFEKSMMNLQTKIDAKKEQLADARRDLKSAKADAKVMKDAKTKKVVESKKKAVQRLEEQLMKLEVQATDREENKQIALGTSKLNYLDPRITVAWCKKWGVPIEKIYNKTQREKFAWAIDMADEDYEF
Sequence of CDK5/p35 (Q03114 whole entry): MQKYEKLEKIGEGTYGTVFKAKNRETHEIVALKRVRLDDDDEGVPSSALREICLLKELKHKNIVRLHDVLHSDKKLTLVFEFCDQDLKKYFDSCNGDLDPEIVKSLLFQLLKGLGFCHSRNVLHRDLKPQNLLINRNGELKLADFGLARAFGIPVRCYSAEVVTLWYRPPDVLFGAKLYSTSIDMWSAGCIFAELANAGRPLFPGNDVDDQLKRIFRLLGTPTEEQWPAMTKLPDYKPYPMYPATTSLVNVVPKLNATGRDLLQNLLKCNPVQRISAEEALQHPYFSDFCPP
Sequence of CDK5/p35 (P61810 2-307 partner limits assumed): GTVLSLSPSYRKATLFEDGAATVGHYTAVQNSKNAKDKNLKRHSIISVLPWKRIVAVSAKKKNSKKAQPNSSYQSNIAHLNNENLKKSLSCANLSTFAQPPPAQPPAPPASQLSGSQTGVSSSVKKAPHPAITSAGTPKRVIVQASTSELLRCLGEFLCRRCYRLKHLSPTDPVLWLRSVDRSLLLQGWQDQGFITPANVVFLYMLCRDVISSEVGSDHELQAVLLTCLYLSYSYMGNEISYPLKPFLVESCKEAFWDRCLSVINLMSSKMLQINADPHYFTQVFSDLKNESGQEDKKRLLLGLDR
Sequence of cdk6/cyclin D2 (Q00534 whole entry, species assumed): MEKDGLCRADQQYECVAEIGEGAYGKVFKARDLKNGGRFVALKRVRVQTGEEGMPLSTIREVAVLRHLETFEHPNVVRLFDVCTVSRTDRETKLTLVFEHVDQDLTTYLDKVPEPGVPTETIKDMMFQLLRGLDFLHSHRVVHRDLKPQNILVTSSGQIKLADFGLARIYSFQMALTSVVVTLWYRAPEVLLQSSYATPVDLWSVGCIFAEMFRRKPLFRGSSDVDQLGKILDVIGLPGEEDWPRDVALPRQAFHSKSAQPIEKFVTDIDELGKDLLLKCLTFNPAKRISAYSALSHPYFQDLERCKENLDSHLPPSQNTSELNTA
Sequence of cdk6/cyclin D2 (P30279 whole entry partner, species assumed): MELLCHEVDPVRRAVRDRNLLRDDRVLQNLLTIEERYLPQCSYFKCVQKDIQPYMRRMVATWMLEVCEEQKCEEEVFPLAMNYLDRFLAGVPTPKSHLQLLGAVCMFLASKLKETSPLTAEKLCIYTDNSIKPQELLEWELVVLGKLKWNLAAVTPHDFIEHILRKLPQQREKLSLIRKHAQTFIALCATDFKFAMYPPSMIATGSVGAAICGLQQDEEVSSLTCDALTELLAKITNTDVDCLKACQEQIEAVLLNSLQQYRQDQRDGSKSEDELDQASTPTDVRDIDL
Sequence of protein kinase C ζ (Q05513 whole entry): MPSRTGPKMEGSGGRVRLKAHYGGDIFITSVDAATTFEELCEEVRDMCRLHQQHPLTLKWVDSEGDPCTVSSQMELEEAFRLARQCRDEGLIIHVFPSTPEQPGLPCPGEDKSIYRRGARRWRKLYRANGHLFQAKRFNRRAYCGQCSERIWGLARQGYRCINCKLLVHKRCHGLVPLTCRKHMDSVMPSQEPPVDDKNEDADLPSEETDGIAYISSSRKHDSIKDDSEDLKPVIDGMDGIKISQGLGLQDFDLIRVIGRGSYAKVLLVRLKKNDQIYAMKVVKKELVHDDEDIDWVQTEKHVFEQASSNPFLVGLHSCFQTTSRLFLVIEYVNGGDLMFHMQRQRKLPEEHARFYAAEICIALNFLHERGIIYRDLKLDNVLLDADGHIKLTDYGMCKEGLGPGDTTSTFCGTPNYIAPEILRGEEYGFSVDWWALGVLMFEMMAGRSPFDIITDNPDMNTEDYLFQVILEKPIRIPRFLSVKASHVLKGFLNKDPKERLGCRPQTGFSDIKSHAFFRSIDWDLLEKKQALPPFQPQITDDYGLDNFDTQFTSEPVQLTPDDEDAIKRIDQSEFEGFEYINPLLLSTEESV

`NC1=NC(=O)C(=C2CCNC(=O)c3[nH]c(Br)cc32)N1` [hymenialdisine, 4-(2-amino-4-oxo-2-imidazolin-5-ylidene)-2-bromo-4,5,6,7-tetrahydropyrrolo (2,3-c) azepine-8-one] showed an IC50 (cdk6/cyclin D2) of 700 nM, an IC50 (c-Jun N-terminal kinase) of 8500 nM and an IC50 (protein kinase C α) of 700 nM. The IC50 (protein kinase C ζ) was 60000 nM, the IC50 (topoisomerase I) was greater than 10000 nM and the “presenilin-2 phosphorylation by CK1” value (casein kinase 1) was “dose-dependent inhibition of presenilin-2 phosphorylation”. For the same compound, the IC50 (CDK5/p35) was 10 to 100 nM, the “cell morphology and distribution of MAP-1B-P” value (GSK-3β; 1 μM, 10 μM, 25 μM, 20 h) was “no noticeable effect” and the “MAP-1B-P in axonal processes” value (GSK-3β; 50 μM, 20 h) was “loss of MAP-1B-P from most of the axonal processes”. For the same compound, the “MAP-1B-P in axonal processes” value (GSK-3β; 100 μM, 20 h) was “loss of MAP-1B-P from processes”, the “MAP-1B-P by Western blotting” value (GSK-3β; increasing doses 1–100 μM) was “loss of MAP-1B-P in a dose-dependent manner” and the IC50 (lung, H460) was 42 µg/mL (≈ 130 µM). The “displacement of cyclin B from CDK1” value (CDK1/cyclin B) was “does not act by displacing cyclin B from CDK1”.
